Assay results from patent US20150366962A1 (priority 2014, published 2015).

Key:
recombinant PR8 HA = test: T cell response to head and stalk segments of PR8 HA (IFNγ ELISpot or ELISA); format: in vivo, Balb/c mice; details: two immunizations two weeks apart, 6 weeks after the first
[1] = test system: rHA derived from A/Vietnam/1203/2004 (VN/04); set-up: species or system BALB/c mice; details: mouse, in vivo
myeloid dendritic cells = test: Chemokine induction in human myeloid dendritic cells; format: cell-based; details: myeloid DC
Method: (§1) TLR7 expression in humans is limited to plasmacytoid DC and B cells, and different from the expression in mice. Conversely, TLR4 is abundantly expressed in different cell types in humans and mice. Thus, experiments were performed to determine whether 1Z105 and 1V270 could stimulate human umbilical vein cells (HUVEC) and myeloid dendritic cells.

[2] = test system: A/Brisbane/59/2007 (H1N1), A/Uruguay/716/2007 (H3N2), B/Brisbane/60/2008; test: Fluzone immunization: serum IgG to the vaccine's viral components; format: in vivo, BALB/c mice; details: 50 ng/HA 2009-2010 Fluzone, 3 weeks
[3] = test system: rHA derived from A/California/04/2009 (pH1N1); test: rHA (Cal/09) immunization: serum IgG ELISA; format: in vivo, BALB/c mice; details: 5 μg Cal/09 rHA, 3 weeks after immunization
[4] = test system: A/Puerto Rico/8/1934(H1N1); set-up: species or system BALB/c mice; details: mouse, in vivo
[5] = Histological examination for reactogenicity (H&E, injected muscle); format: in vivo, BALB/c mice; details: for inflammation at the site of injection and systemically in comparison to AddaVax: 24 h after i.m. injection; for cellular infiltration in injected muscle (H&E): i.m. without antigen, 24 h after injection
From the text: Scale bars, 100 μm. […] The error bars indicate SEM.
Twenty-four hours after injection, muscle tissues at the injection sites and sera were harvested. The muscles were fixed in 10% buffered formalin and embedded in paraffin. Sections 5 μm thick were stained with hematoxylin and eosin (H&E) and examined under a microscope.

rPR/8 HA = rPR/8 HA single immunization: serum antibody ELISA; format: in vivo, BALB/c mice; details: for seroconversion to rPR/8 HA (total IgG, IgG1, IgG2a): 5 μg rPR/8 HA i.m. day 0, sera days 7, 14, 21; for total serum IgG reactive to antigen, long term / IgG2a/IgG1 ratio (Th1-Th2 immune balance): 5 μg rPR/8 HA; for total serum IgG reactive to antigen, long term: bled every 3 weeks up to 18 weeks; for IgG2a/IgG1 ratio (Th1-Th2 immune balance): single immunization
OT-II splenocytes = test: Intracellular IFNγ in CD4 T cells of OT-II splenocytes; format: cell-based, mice; details: for intracellular IFNγ expressing CD4 T cells: alone, OVA323-339, 3 days
Method: To evaluate whether 1Z105 can enhance the proinflammatory cytokine induction by 1V270, BMDC (C57BL/6) were incubated with 1V270 (0.025, or 0.1 μM) in the presence or absence of 1Z105 (5 μM). […] Antigen presenting function was evaluated using splenocytes prepared from OVA MHC class II-restricted alpha beta T cell receptor (TCR) transgenic mice OT-II. Splenocytes were cultured with OVA peptide (OVA323-339) for 3 days with 1Z105, or 1V270 alone or in combination. The frequency of intracellular (IC) IFNγ expressing CD4 T cells was determined by flow cytometric assay. Treatment with 1V270 alone increased intracellular IFNγ (3.7 and 6.8% by 25 and 100 nM, respectively).

rCal/09 HA = test: Cross-reactive serum IgG to Cal/09 HA after rPR/8 HA immunization; format: in vivo, BALB/c mice; details: for heteroreactive serum IgG titers versus unadjuvanted protein alone: 5 μg rPR/8 HA, rCal/09 HA substrate, 3 weeks
[6] = test system: Purified CD4+ or CD8+ T cells; test: Purified CD4+ or CD8+ T cell proliferation; format: cell-based; details: in the presence of CD3 ligation
Method: Capability for induction of antigen specific CD8 T cells is one of the ideal features for adjuvants for cancer or herpes simplex virus infection. Thus, 1V270 and 1Z105 were examined to determine whether the agonists can directly induce T cell proliferation. Purified CD4+ or CD8+ T cells were incubated with 1Z105, 1V270 alone or in combination.

OVA = OVA immunization: anti-OVA IgG1 and IgG2c by ELISA; format: in vivo, C57BL/6 mice; details: i.m. OVA 20 μg plus adjuvant, sera day 35
[7] = test system: human umbilical vein cells (HUVEC); test: Chemokine induction in HUVEC; format: cell-based
Method: as §1

| SMILES | T cell response against the head segment (pool 1-2) of HA (recombinant PR8 HA) | IgG seroresponse [1] | induction of chemokines MCP-1 and IL-8 (myeloid dendritic cells) | seroresponse to the three viral components of Fluzone (ELISA) [2] | IgG seroresponse [3] | mortality [4] | survival after the lethal challenge [4] [%] | weight loss [4] | inflammation at the site of injection and systemically in comparison to AddaVax [5] | cellular infiltration in injected muscle (H&E) [5] | seroconversion to rPR/8 HA (total IgG, IgG1, IgG2a) (rPR/8 HA) | total serum IgG reactive to antigen, long term (rPR/8 HA) | IgG2a/IgG1 ratio (Th1-Th2 immune balance) (rPR/8 HA) | heteroreactive serum IgG titers versus unadjuvanted protein alone (rCal/09 HA) | purified CD4+ or CD8+ T cell proliferation [6] | serum anti-OVA IgG1 titers versus OVA alone (OVA) | induction of chemokines MCP-1 and IL-8 [7] | also measured |
| --- | --- | --- | --- | --- | --- | --- | --- | --- | --- | --- | --- | --- | --- | --- | --- | --- | --- | --- |
| CCCCCCCCC=CCCCCCCCC(=O)OCC(COP(=O)(O)OCCNC(=O)c1ccc(Cn2c(=O)[nH]c3c(N)nc(OCCOC)nc32)cc1)OC(=O)CCCCCCCC=CCCCCCCCC (stereo not shown) [Compound 1V270] | highly induced T cell response | enhanced | minimal effects | enhanced the seroresponse to all three viral components | enhanced | provided protective efficacy | 100 | significantly reduced weight loss | minimal inflammation | minimal cellular infiltration | induced rapid seroconversion | induced a robust and sustained IgG response | induced both IgG1 and IgG2a in a more balanced Th1-Th2-type response | significantly higher | enhanced purified CD4+ or CD8+T cell proliferation | did not induce IgG1 comparably to 1Z105 | minimal effects | stalk-specific (pool 3-4) T cell responses (recombinant PR8 HA): also induced stalk-specific (pool 3-4) T cell responses; weight loss compared to AddaVax [4]: restricted weight loss compared to AddaVax; intracellular IFNγ expressing CD4 T cells (OT-II splenocytes; 25 nM): 3.7%; intracellular IFNγ expressing CD4 T cells (OT-II splenocytes; 100 nM): 6.8%; serum anti-OVA IgG2c titers versus OVA alone (OVA): significantly higher IgG2c titers |
| Cn1c2ccccc2c2nc(SCC(=O)NC3CCCCC3)n(-c3ccccc3)c(=O)c21 [Compound 1Z105] | highly induced T cell response | enhanced | induced the chemokines MCP-1, and IL-8 | enhanced the seroresponse to all three viral components | enhanced | provided protective efficacy | 100 | significantly reduced weight loss | minimal inflammation | minimal cellular infiltration | induced rapid seroconversion | induced a robust and sustained IgG response | produced predominately IgG1 in a Th2-type response | significantly higher | enhanced purified CD4+ or CD8+T cell proliferation | significantly higher | induced the chemokines MCP-1, and IL-8 | mortality compared to no-adjuvant control receiving 5 μg of rHA [4]: significantly minimized; difference in serum IgG endpoint titers among rHA doses (antigen sparing) (rPR/8 HA; 5, 1 or 0.2 μg rPR/8 HA, 3 weeks after immunization): no significant difference; frequency of IFNγ-producing cells (OT-II splenocytes; 1Z105 in combination with 1V270): additively increased; subtypes of cross-reactive antibodies (IgG2a/IgG1) (rCal/09 HA; antibodies cross-reactive to Cal/09 HA): produced predominately IgG1 |
